Patent publication US5116855A, “Rhodanine derivatives and pharmaceutical compositions” (Nisshin Flour Milling Co., Ltd., priority 1989, dated 1992)

Target: T1, aldose reductase (Rattus norvegicus, UniProt P07943)
T1 construct: the lenses were excised and homogenized in cold distilled water; from tissue; host or cells: lens of male SD rats, homogenate supernatant (crude enzyme)
Test: Inhibitory activity against aldose reductase (crude enzyme from rat lenses, NADPH oxidation at 340 nm, D,L-glyceraldehyde substrate)
Format: biochemical
Conditions: aldose reductase from SD rat lenses, pH 6.2, 30° C.; for inhibition at 10 µM: pH 6.2, 10^-5 M; for inhibition at 10 µM / inhibition at 1 µM: read-out: Percentage of inhibition (%); for inhibition at 1 µM: pH 6.2, 10^-6 M
Experimental: The compounds of the present invention were evaluated for the inhibitory activity against aldose reductase according to the following assay procedure.
Enzyme activity was assayed according to the modification [Biochemical Pharmacology, 25, 2505 (1976)] of the method described in J. Biol. Chem., 240, 877-882 (1965).
SD strain male rats were sacrificed by decapitation, the lenses were excised and homogenized in cold distilled water. The homogenate was then centrifuged and the supernatant was used as the crude aldose reductase solution.
Separately, a 0.1 M sodium phosphate buffer (pH 6.2) containing 0.4 M ammonium sulfate was prepared at 30° C. In this buffer were dissolved the present compound, the crude aldose reductase solution and nicotinamide-adenine dinucleotide phosphate, reduced form (NADPH). The mixture was preincubated at 30° C. for 3 minutes and the reaction was initiated by addition of D,L-glyceraldehyde. In this case, the concentration of the present compound dissolved was 10^-5 M and 10^-6 M, respectively. The total amount of the assay mixture was 1.0 ml, containing 0.16 mM of NADPH, 10 mM of D,L-glyceraldehyde and 0.010-0.016 units of aldose reductase.
The inhibitory activity of the present compounds against aldose reductase was measured using each 1.0 ml of the reaction mixture containing the present compound in the above concentration. In this measurement, the rate of NADPH oxidation was followed by recording the decrease in absorbance at 340 nm. The inhibitory activity of the present compounds against aldose reductase as measured was expressed in percentage of inhibition (%) as a relative activity based on a control value.

| inhibition at 10 µM [%] | inhibition at 1 µM [%] | Percentage of inhibition (%) (10^-5 M) | Percentage of inhibition (%) (10^-6 M) | SMILES |
| --- | --- | --- | --- | --- |
| 92.5 | 84.7 | – | – | COc1cc(C=CC(C)=C2SC(=S)NC2=O)ccc1OCC(=O)O [Example 32, 4-[3-(4-Oxo-2-thioxo-5-thiazolidinylidene)-1-butenyl]-2-methoxyphenoxyacetic acid] |
| 72 | 48.6 | – | – | CCOC(=O)CCC(C=Cc1ccc(OC)c(OC)c1)=C1SC(=S)NC1=O [Example 2, Ethyl 6-(3,4-dimethoxyphenyl)-4-(4-oxo-2-thioxo-5-thiazolidinylidene)-5-hexenoate] |
| 55.2 | 34.3 | – | – | COC(=O)COc1ccc(OC)cc1C=CC(C)=C1SC(=S)NC1=O [Example 65, Methyl 4-methoxy-2-[3-(4-oxo-2-thioxo-5-thiazolinylidene)-1-butenyl]phenoxyacetate] |
| 48.9 | 26.1 | – | – | CCOC(=O)COc1ccc(CCC(C)=C2SC(=S)NC2=O)cc1OC [Example 43, Ethyl 2-methoxy-4-[3-(4-oxo-2-thioxo-5-thiazolinylidene)butyl]phenoxyacetate] |
| 95.3 | 87.6 | – | – | CC(C=Cc1cc(Cl)ccc1OCC(=O)O)=C1SC(=S)NC1=O [Example 75, 4-Chloro-2-[3-(4-oxo-2-thioxo-5-thiazolinylidene)-1-butenyl]phenoxyacetic acid] |
| 86.2 | 48.5 | – | – | COC(=O)COc1ccccc1C=C(C)C=C1SC(=S)NC1=O [Example 41, Methyl 2-[2-methyl-3-(4-oxo-2-thioxo-5-thiazolinylidene)-1-propenyl]phenoxyacetate] |
| 95.8 | 86.1 | – | – | CC(C=Cc1cc(Br)ccc1OCC(=O)O)=C1SC(=S)NC1=O [Example 79, 4-Bromo-2-[3-(4-oxo-2-thioxo-5-thiazolinylidene)-1-butenyl]phenoxyacetic acid] |
| 82.8 | 38.5 | – | – | O=C(O)CCC(C=Cc1ccc(C(=O)O)cc1)=C1SC(=S)NC1=O [Example 29, 6-(4-Carboxyphenyl)-4-(4-oxo-2-thioxo-5-thiazolidinylidene)-5-hexenoic acid] |
| 50.9 | – | – | – | CCOC(=O)CCC(C=Cc1ccc(C#N)cc1)=C1SC(=S)NC1=O [Example 7, Ethyl 6-(4-cyanophenyl)-4-(4-oxo-2-thioxo-5-thiazolidinylidene)-5-hexenoate] |
| – | – | 80.5 | 32.2 | COC(=O)COc1ccccc1C=C(C)C=C1SC(=S)NC1=O [Example 63, Methyl 2-[2-methyl-3-(4-oxo-2-thioxo-5-thiazolinylidene)-1-propenyl]phenoxyacetate] |
| 34.3 | – | – | – | COC(=O)COc1c(C=CC(C)=C2SC(=S)NC2=O)cccc1OC [Example 46, Methyl 2-methoxy-6-(3-(4-oxo-2-thioxo-5-thiazolinylidene)-1-butenyl]phenoxyacetate] |
| 35 | – | – | – | CCOC(=O)CCC(C=Cc1ccc(C(F)(F)F)cc1)=C1SC(=S)NC1=O (single isomer, unassigned) [6 Isomer A] |
| – | – | 80.5 | 34.5 | CCCC(C=Cc1ccc(C(=O)O)cc1)=C1SC(=S)NC1=O (single isomer, unassigned) [3 Isomer B] |
| 90.6 | 53.1 | – | – | CCCC(CCc1ccccc1OCC(=O)O)=C1SC(=S)NC1=O (single isomer, unassigned) [27 Isomer A] |

The next lines start with the compound.

| SMILES | inhibition at 10 µM [%] | inhibition at 1 µM [%] | Percentage of inhibition (%) (10^-5 M) | Percentage of inhibition (%) (10^-6 M) |
| --- | --- | --- | --- | --- |
| COC(=O)COc1ccc(C(F)(F)F)cc1C=CC(C)=C1SC(=S)NC1=O [Example 66, Methyl 4-trifluoromethyl-2-[3-(4-oxo-2-thioxo-5-thiazolinylidene)-1-butenyl]phenoxyacetate] | 79.9 | 45.6 | – | – |
| Cc1ccsc1C=CC(CCC(=O)O)=C1SC(=S)NC1=O [Example 31, 6-(3-Methyl-2-thienyl)-4-(4-oxo-2-thioxo-5-thiazolidinylidene)-5-hexenoic acid] | 83.6 | 39.8 | – | – |
| COC(=O)COc1ccc(C=CC(C)=C2SC(=S)NC2=O)cc1OC [Example 42, Methyl 2-methoxy-4-[3-(4-oxo-2-thioxo-5-thiazolinylidene)-1-butenyl]phenoxyacetate] | 54.2 | 33.8 | – | – |
| CCCCCCC(C=Cc1ccc(C=CC(=O)O)cc1)=C1SC(=S)NC1=O (single isomer, unassigned) [Example 28, 4-[3-(4-Oxo-2-thioxo-5-thiazolidinylidene)-1-nonenyl]cinnamic acid] | 33 | – | – | – |
| CCCCOC(=O)COc1ccc(Cl)cc1C=CC(C)=C1SC(=S)NC1=O (single isomer, unassigned) [51 Isomer A] | 51.4 | – | – | – |
| CCOC(=O)CCC(C=Cc1cccc(O)c1)=C1SC(=S)NC1=O (single isomer, unassigned) [8 Isomer B] | – | – | 43.1 | – |
| CCCC(=Cc1ccccc1OCC(=O)O)C=C1SC(=S)NC1=O [Example 84, 2-[2-Propyl-3-(4-oxo-2-thioxo-5-thiazolinylidene)-1-propenyl]phenoxyacetic acid] | 92 | 77.6 | – | – |
| CC(C=Cc1cc(C(F)(F)F)ccc1OCC(=O)O)=C1SC(=S)NC1=O [Example 89, 4-Trifluoromethyl-2-[3-(4-oxo-2-thioxo-5-thiazolinylidene)-1-butenyl]phenoxyacetic acid] | 92.9 | 85.7 | – | – |
| CC(C=Cc1cc(C(C)C)c(OCC(=O)O)c(C(C)C)c1)=C1SC(=S)NC1=O [Example 77, 2,6-Diisopropyl-4-[3-(4-oxo-2-thioxo-5-thiazolinylidene)-1-butenyl]phenoxyacetic acid] | 82.8 | 41.4 | – | – |
| CCOc1cc(CCC(C)=C2SC(=S)NC2=O)ccc1OCC(=O)OC [Example 45, Methyl 2-ethoxy-4-[3-(4-oxo-2-thioxo-5-thiazolinylidene)butyl]phenoxyacetate] | 48.9 | – | – | – |
| CCCC(=Cc1ccccc1OCC(=O)OC)C=C1SC(=S)NC1=O (single isomer, unassigned) [61 Isomer B] | – | – | 77.2 | 39.0 |
| CCOC(=O)COc1ccc(C=CC(C)=C2SC(=S)N(C)C2=O)cc1OC (single isomer, unassigned) [55 Isomer B] | – | – | 47.5 | 24.3 |
| COc1ccc(C=CC(CCCC(=O)O)=C2SC(=S)NC2=O)cc1OC (single isomer, unassigned) [38 Isomer B] | – | – | 94.5 | 77.9 |
| CCCC(=Cc1ccccc1OCC(=O)OC)C=C1SC(=S)NC1=O (single isomer, unassigned) [61 Isomer A] | 61.8 | 28.7 | – | – |
| COC(=O)COc1ccc(C(C)C)cc1C=CC(C)=C1SC(=S)NC1=O (single isomer, unassigned) [62 Isomer A] | 48.3 | – | – | – |
| CC(C=Cc1cc(Cl)ccc1OCC(=O)OCc1ccccc1)=C1SC(=S)NC1=O [Example 50, Benzyl 4-chloro-2-[3-(4-oxo-2-thioxo-5-thiazolinylidene)-1-butenyl]phenoxyacetate] | 48 | – | – | – |
| CCOc1cc(C=CC(C)=C2SC(=S)NC2=O)ccc1OCC(=O)OC [Example 44, Methyl 2-ethoxy-4-[3-(4-oxo-2-thioxo-5-thiazolinylidene)-1-butenyl]phenoxyacetate] | 39.1 | – | – | – |
